Measurements taken from US11325899B2, “Benzofurane and benzothiophene derivatives as PGE2 receptor modulators” (IDORSIA PHARMACEUTICALS LTD, priority 2017, dated 2022).

Experiments:
Assay type in all cases: cell-based
PTGER2 (EP2) = target: T1, PTGER2 (EP2) (Homo sapiens, UniProt P43116); assay: hEP2 b-arrestin assay (PathHunter HEK 293 PTGER2 b-arrestin cells); details: antagonistic activity, beta-arrestin assay; read-out: hEP2 b-arr IC50
T1 construct: host or cells: HEK 293 (PathHunter PTGER2 b-arrestin cell line)
T1 sequence (P43116 whole entry): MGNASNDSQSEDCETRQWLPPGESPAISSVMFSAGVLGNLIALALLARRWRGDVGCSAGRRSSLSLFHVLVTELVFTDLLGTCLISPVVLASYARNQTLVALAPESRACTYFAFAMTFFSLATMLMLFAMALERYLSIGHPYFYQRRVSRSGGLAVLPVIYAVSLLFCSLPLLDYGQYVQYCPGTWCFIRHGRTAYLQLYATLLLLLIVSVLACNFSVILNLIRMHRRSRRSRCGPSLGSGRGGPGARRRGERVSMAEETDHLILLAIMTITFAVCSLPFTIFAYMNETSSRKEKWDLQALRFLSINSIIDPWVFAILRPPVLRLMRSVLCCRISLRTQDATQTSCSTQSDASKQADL
Summary of the method: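 Antagonism measured as inhibition of PGE2-driven β-arrestin 2 recruitment (enzyme fragment complementation, luminescence) in engineered HEK293 EP2 cells. Agonist: 5 μM PGE2, ~EC80, 120 min at 37 °C after 15 min compound preincubation; test range 10 μM-2 nM or 1 μM-0.2 nM, duplicates, IC50 fitted.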

PTGER4 (EP4) = target: T2, PTGER4 (EP4) (Homo sapiens, UniProt P35408); assay: hEP4 b-arrestin assay (PathHunter HEK 293 PTGER4 b-arrestin cells); details: antagonistic activity, beta-arrestin assay; read-out: hEP4 b-arr IC50
T2 construct: host or cells: HEK 293 (PathHunter PTGER4 b-arrestin cell line)
T2 sequence (P35408 whole entry): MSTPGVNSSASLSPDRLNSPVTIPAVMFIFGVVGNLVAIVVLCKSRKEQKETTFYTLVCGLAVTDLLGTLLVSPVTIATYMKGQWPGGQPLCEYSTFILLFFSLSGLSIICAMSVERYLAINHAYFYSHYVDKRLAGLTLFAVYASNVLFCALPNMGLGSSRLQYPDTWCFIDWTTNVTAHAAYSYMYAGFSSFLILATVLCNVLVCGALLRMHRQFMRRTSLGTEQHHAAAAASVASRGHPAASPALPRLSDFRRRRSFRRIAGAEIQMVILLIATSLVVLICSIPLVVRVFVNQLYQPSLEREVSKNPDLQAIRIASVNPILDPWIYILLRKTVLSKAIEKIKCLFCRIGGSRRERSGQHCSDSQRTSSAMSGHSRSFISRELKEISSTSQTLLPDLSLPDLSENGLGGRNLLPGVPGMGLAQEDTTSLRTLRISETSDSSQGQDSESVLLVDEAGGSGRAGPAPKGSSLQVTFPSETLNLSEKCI
Summary of the method: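 β-Arrestin recruitment to EP4 was read as enzyme-fragment-complementation chemiluminescence in stably transfected HEK 293 cells. After 15 min compound preincubation at 37 °C (ranges 10 μM–2 nM or 1 μM–0.2 nM), cells were stimulated 120 min with PGE2 at 20 nM, its EC80. IC50 values were fitted from duplicates, with repeat measurements averaged.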

EP4 receptor = target: T3, EP4 receptor (Homo sapiens, UniProt P35408); assay: hEP4 cAMP assay (BT549 breast cancer cells, HTRF cAMP, PGE2 stimulation); details: antagonistic activity, PGE2 6 nM (EC80)
T3 construct: BT549 breast cancer cells, express high endogenous EP4 levels and very low EP2 levels; host or cells: BT549 breast cancer cells
T3 sequence (P35408 whole entry): as above
Summary of the method: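 BT549 cells, with endogenous EP4 and very low EP2, were preincubated 45 min at room temperature with compound in HBSS/HEPES/BSA buffer with 2 mM IBMX. They were then stimulated 30 min with 6 nM PGE2 (EC80). cAMP was measured by HTRF competitive immunoassay against a calibrator; IC50 from duplicate dose-response as % of DMSO control.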

IC50 (PTGER2 (EP2))	IC50 (PTGER4 (EP4))	IC50 (EP4 receptor)	Compound
6 nM	168 nM	134 nM	COc1ccc(Cl)c2c(CCNc3cc(-c4ccc(C(=O)O)c(SC)c4)ncn3)c(C)sc12 [Example 15, 4-{6-[2-(4-Chloro-7-methoxy-2-methyl-benzo[b]thiophen-3-yl)-ethylamino]-pyrimidin-4-yl}-2-methylsulfanyl-benzoic acid]
14 nM	25 nM	9 nM	CCOc1cc(-c2cc(NCCc3c(C)sc4c(C)ccc(Cl)c34)ncn2)sc1C(=O)O [Example 29, 5-{6-[2-(4-Chloro-2,7-dimethyl-benzo[b]thiophen-3-yl)-ethylamino]-pyrimidin-4-yl}-3-ethoxy-thiophene-2-carboxylic acid]
3 nM	3420 nM	795 nM	CSc1cc(-c2cc(NCCc3c(C)sc4ccccc34)ncn2)ccc1C(=O)O [Example 24, 4-{6-[2-(2-Methyl-benzo[b]thiophen-3-yl)-ethylamino]-pyrimidin-4-yl}-2-methylsulfanyl-benzoic acid]
12 nM	414 nM	468 nM	CSc1cc(-c2cc(NCCc3c(C)sc4c(C)ccc(Cl)c34)ncn2)ccc1C(=O)O [Example 19, 4-{6-[2-(4-Chloro-2,7-dimethyl-benzo[b]thiophen-3-yl)-ethylamino]-pyrimidin-4-yl}-2-methylsulfanyl-benzoic acid]
13 nM	47 nM	186 nM	CCOc1cc(-c2cc(NCCc3c(C)sc4c(C)cc(F)cc34)ncn2)ccc1C(=O)O [Example 56, 2-Ethoxy-4-{6-[2-(5-fluoro-2,7-dimethyl-benzo[b]thiophen-3-yl)-ethylamino]-pyrimidin-4-yl}-benzoic acid]
10 nM	1030 nM	1140 nM	CCCSc1cc(-c2cc(NCCc3c(C)oc4ccccc34)ncn2)ccc1C(=O)O [Example 89, 4-{6-[2-(2-Methyl-benzofuran-3-yl)-ethylamino]-pyrimidin-4-yl}-2-propylsulfanyl-benzoic acid]
11 nM	522 nM	546 nM	CCOc1cc(-c2cc(NCCc3c(C)oc4c(C)cc(Cl)cc34)ncn2)ccc1C(=O)O [Example 64, 4-{6-[2-(5-Chloro-2,7-dimethyl-benzofuran-3-yl)-ethylamino]-pyrimidin-4-yl}-2-ethoxy-benzoic acid]
1 nM	1200 nM	414 nM	CSc1cc(-c2cc(NCCc3c(C)oc4ccccc34)ncn2)ccc1C(=O)O [Example 18, 4-{6-[2-(2-Methyl-benzofuran-3-yl)-ethylamino]-pyrimidin-4-yl}-2-methylsulfanyl-benzoic acid]
8 nM	4300 nM	1160 nM	CCOc1cc(-c2cc(NCCc3c(Cl)sc4ccccc34)ncn2)ccc1C(=O)O [Example 75, 4-{6-[2-(2-chloro-benzo[b]thiophen-3-yl)-ethylamino]-pyrimidin-4-yl}-2-ethoxy-benzoic acid]
21 nM	1030 nM	695 nM	CCCSc1cc(-c2cc(NCCc3c(C)sc4ccccc34)ncn2)ccc1C(=O)O [Example 88, 4-{6-[2-(2-Methyl-benzo[b]thiophen-3-yl)-ethylamino]-pyrimidin-4-yl}-2-propylsulfanyl-benzoic acid]
4 nM	328 nM	224 nM	CCSc1cc(-c2cc(NCCc3c(C)sc4c(C)cccc34)ncn2)ccc1C(=O)O [Example 42, 4-{6-[2-(2,7-Dimethyl-benzo[b]thiophen-3-yl)-ethylamino]-pyrimidin-4-yl}-2-ethylsulfanyl-benzoic acid]

More lines, now with the values behind:

Compound	IC50 (PTGER2 (EP2))	IC50 (PTGER4 (EP4))	IC50 (EP4 receptor)
CSc1cc(-c2cc(NCCc3c(C)sc4c(C)c(F)ccc34)ncn2)ccc1C(=O)O [Example 21, 4-{6-[2-(6-Fluoro-2,7-dimethyl-benzo[b]thiophen-3-yl)-ethylamino]-pyrimidin-4-yl}-2-methylsulfanyl-benzoic acid]	4 nM	283 nM	564 nM
COc1cc(F)c(F)c2c(CCNc3cc(-c4ccc(C(=O)O)c(OC5CC5)c4)ncn3)c(C)oc12 [Example 85, 2-Cyclopropoxy-4-{6-[2-(4,5-difluoro-7-methoxy-2-methyl-benzofuran-3-yl)-ethylamino]-pyrimidin-4-yl}-benzoic acid]	68 nM	374 nM	258 nM
CCOc1cc(-c2cc(NCCc3c(C)oc4c(C)cc(F)cc34)ncn2)sc1C(=O)O [Example 37, 3-Ethoxy-5-{6-[2-(5-fluoro-2,7-dimethyl-benzofuran-3-yl)-ethylamino]-pyrimidin-4-yl}-thiophene-2-carboxylic acid]	2 nM	42 nM	49 nM
Cc1sc2c(C)cc(F)cc2c1CCNc1cc(-c2ccc(C(=O)O)c(OC3CC3)c2)ncn1 [Example 195, 2-Cyclopropoxy-4-{6-[2-(5-fluoro-2,7-dimethyl-benzo[b]thiophen-3-yl)-ethylamino]-pyrimidin-4-yl}-benzoic acid]	4 nM	111 nM	48 nM
CCOc1cc(-c2cc(NCCc3c(C)oc4c(OC)ccc(F)c34)ncn2)sc1C(=O)O [Example 34, 3-Ethoxy-5-{6-[2-(4-fluoro-7-methoxy-2-methyl-benzofuran-3-yl)-ethylamino]-pyrimidin-4-yl}-thiophene-2-carboxylic acid]	6 nM	12 nM	22 nM
CCOc1cc(-c2cc(NCCc3c(C)oc4c(OC)cc(Cl)cc34)ncn2)ccc1C(=O)O [Example 70, 4-{6-[2-(5-Chloro-7-methoxy-2-methyl-benzofuran-3-yl)-ethylamino]-pyrimidin-4-yl}-2-ethoxy-benzoic acid]	37 nM	394 nM	985 nM
Cc1sc2c(C)cccc2c1CCNc1cc(-c2ccc3c(C(=O)O)coc3c2)ncn1 [Example 76, 6-{6-[2-(2,7-Dimethyl-benzo[b]thiophen-3-yl)-ethylamino]-pyrimidin-4-yl}-benzofuran-3-carboxylic acid]	10 nM	1140 nM	523 nM
Cc1sc2c(C)cc(F)cc2c1CCNc1cc(-c2ccc(-c3nc(=O)[nH]o3)cc2)ncn1 [Example 79, 5-(4-{6-[2-(5-Fluoro-2,7-dimethyl-benzo[b]thiophen-3-yl)-ethylamino]-pyrimidin-4-yl}-phenyl)-[1,2,4]oxadiazol-3(2H)-one [tautomeric form: 5-(4-(6-((2-(5-fluoro-2,7-dimethylbenzo[b]thiophen-3-yl)ethyl)amino)pyrimidin-4-yl)phenyl)-[1,2,4]oxadiazol-3-ol]]	26 nM	263 nM	91 nM
CCOc1cc(-c2cc(NCCc3c(C)sc4ccccc34)ncn2)ccc1C(=O)O [Example 72, 2-Ethoxy-4-{6-[2-(2-methyl-benzo[b]thiophen-3-yl)-ethylamino]-pyrimidin-4-yl}-benzoic acid]	3 nM	2250 nM	1590 nM
CCOc1cc(-c2cc(NCCc3c(C)oc4c(OC)cc(F)c(F)c34)ncn2)sc1C(=O)O [Example 31, 5-{6-[2-(4,5-Difluoro-7-methoxy-2-methyl-benzofuran-3-yl)-ethylamino]-pyrimidin-4-yl}-3-ethoxy-thiophene-2-carboxylic acid]	11 nM	27 nM	13 nM
